Measured values as given in patent US20230285371A1 (THE SECOND XIANGYA HOSPITAL OF CENTRAL SOUTH UNIVERSITY, priority 2020, published 2023).
Values joined by “and” are separate entries in the source; they are usually repeats but may differ in a detail not shown here. Identical values can stand only once. Marks after values point to notes of the source that are not given here.

Key:
[1] = tested on: Th1 cell marker genes (Tbet and IFNγ) and pro-inflammatory cytokines (IL-1β, IL-6 and TNF-α) in the pancreas; assay: Gene expression in pancreas of NOD mice, RT-PCR; assay type: in vivo
Text: (§1) From the age of 10 weeks, the mice were gavaged for 4 weeks, and injected with cyclophosphamide after the gavage for two weeks to induce the onset of the disease.

[2] = tested on: female NOD mice (spontaneous type 1 diabetes); assay: Prevention of spontaneous type 1 diabetes in NOD mice; assay type: in vivo; details: spontaneous T1D
Text: (§2) I. Materials and Methods • 1. Mice: The most widely used spontaneous type 1 diabetes mouse model for the study of type 1 diabetes—NOD mice were selected. Since the incidence rate of spontaneous type 1 diabetes in female NOD mice is much higher than that in male mice, female NOD mice were used for experiments in the present invention. The female NOD mice of the present invention were purchased from Shanghai Model Organisms Center, Inc. • 2. Preparation of medicine: Carboxymethylcellulose (CMC) was used as the solvent. […] Injection of cyclophosphamide: 300 mg/kg body weight of cyclophosphamide was injected into NOD mice so as to rapidly induce the onset of type 1 diabetes. • 5. Measurement of blood sugar: About 1 mm of the tail tip of the mice was cut off, the first drop of blood was wiped off with gauze, then the second drop of blood flew out naturally, which was drawn with a blood sugar test strip, and the reading was recorded. It can be diagnosed type 1 diabetes when two consecutive blood sugar readings were both >250 mg/dl. • 6. […] After 4 weeks of gavage, each mouse was injected with cyclophosphamide to induce the onset of type 1 diabetes, and the incidence rate of type 1 diabetes in the mice was observed and counted.

STAT4 and p-STAT4 = assay: STAT4 phosphorylation in IL-12-treated Naive CD4+ T cells, western blot; assay type: cell-based, C57BL/6J mice; details: IL-12, 48 hours
Protocol: The cells were collected after 48 hours to extract proteins for western blot (WB) to detect the protein levels of STAT4 and p-STAT4.

NOD mice (insulitis) = details: gavage once a day for 4 weeks from 8 weeks of age, nondiabetic mice, HE staining
Naive CD4+ T cells = assay: Cytotoxicity to T cells: cell count after 48 hours; assay type: cell-based, C57BL/6J mice
[3] = tested on: differentiation of Th1 cells induced by IL-12 (Naive CD4+ T cells); assay: In vitro inhibition assay: IL-12-induced Th1 differentiation, flow cytometry; assay type: cell-based, C57BL/6J mice; details: for Th1 (%) Average / Th1 (%): IL-12, 48 hours; for Th1 (%) Average: average of 3 wells; for Th1 (%): individual parallel wells
Protocol: C57BL/6J mice were sacrificed, the spleen was taken and disrupted in PBS containing 2% fetal bovine serum (FBS). The cell suspension was filtered through a 70 μm nylon filter to remove tissue debris. The obtained cell suspension was centrifuged at 300 g for 10 min, and the cells were resuspended in PBS containing 2% fetal bovine serum (FBS) to maintain a cell concentration of 1×10^8 nucleated cells/mL. Naive CD4+ T cells were extracted with the EasySep™ Mouse Naive CD4+ T Cell Isolation Kit ([…] Technologies), and the extracted Naive CD4+ T cells were cultured in RPMI-1640 medium (Gibco) containing 10% fetal bovine serum (Gibco) and 1% penicillin/streptomycin (Gibco).
The cells were collected after 48 hours, and subjected to flow cytometry to detect the proportion of Th1 cells.

[4] = tested on: CD4+ T cell subsets (Th1, Th2, Th17 and Treg) in the pancreas; assay: CD4+ T cell subsets in pancreas of NOD mice, flow cytometry; assay type: in vivo
Text: as §1

[5] = tested on: female NOD mice (type 1 diabetes induced by cyclophosphamide); assay: Prevention of cyclophosphamide-induced type 1 diabetes in NOD mice; assay type: in vivo; details: cyclophosphamide-induced T1D
Text: as §2

[6] = Sorafenib group vs solvent group
[7] = relative to vehicle, individual mice
[8] = gavage 4 weeks, cyclophosphamide after 2 weeks, individual values

Question: With Sorafenib as the substance, how does the “IFNγ gene expression level in pancreas, Average” value ([1]; P<0.05 vs vehicle (1)) read?
Answer: 0.27*

Question: What about the “Il-1β gene expression level in pancreas, Average” value ([1]; P<0.05 vs vehicle (1)) of the same substance?
Answer: 0.37*

Question: And the “TNFα gene expression level in pancreas, Average” value ([1]; P<0.05 vs vehicle (1))?
Answer: 0.27*

Question: What about the “Tbet gene expression level in pancreas, Average” value ([1]; P<0.1 vs vehicle (1.04)) of the same substance?
Answer: 0.44^+

Question: And the “gene expression levels of Th1 cell marker genes (Tbet and IFNγ) and pro-inflammatory cytokines (IL-1β, IL-6 and TNF-α) in the pancreas” value [1, 6]?
Answer: significantly reduced

Question: And the “IFNγ gene expression level in pancreas” value [1, 7]?
Answer: 0.16 and 0.07 and 0.58

Question: What about the “IL-6 gene expression level in pancreas” value [1, 7] of the same substance?
Answer: 0.64 and 0.12

Question: What about the “Il-1β gene expression level in pancreas” value [1, 7] of the same substance?
Answer: 0.48 and 0.18 and 0.46

Question: And the “TNFα gene expression level in pancreas” value [1, 7]?
Answer: 0.18 and 0.07 and 0.55

Question: And the “Tbet gene expression level in pancreas” value [1, 7]?
Answer: 0.27 and 0.2 and 0.86

Question: And the “IL-6 gene expression level in pancreas, Average” value ([1]; vehicle 1)?
Answer: 0.38

Question: What about the “Survival rate (%)” value ([2]; 10 mg/kg gavage once a day for 12 weeks, day 98) of the same substance?
Answer: 91.30%

Question: And the “Survival rate (%)” value ([2]; 10 mg/kg gavage once a day for 12 weeks, day 119)?
Answer: 73.91%

Question: What about the “Survival rate (%)” value ([2]; 10 mg/kg gavage once a day for 12 weeks, day 140) of the same substance?
Answer: 65.22%

Question: And the “Survival rate (%)” value ([2]; 10 mg/kg gavage once a day for 12 weeks, day 154)?
Answer: 60.87%

Question: And the “Survival rate (%)” value ([2]; 10 mg/kg gavage once a day for 12 weeks, day 168)?
Answer: 52.17%

Question: And the “Survival rate (%)” value ([2]; 10 mg/kg gavage once a day for 12 weeks, day 224, P<0.1 vs vehicle (25))?
Answer: 52.17^+ %

Question: And the “Survival rate (%)” value ([2]; 10 mg/kg gavage once a day from 8 weeks of age for 12 weeks, n=23, day 0)?
Answer: 100%

Question: And the “incidence rate of type 1 diabetes” value ([2]; at 32 weeks of age, CMC group 75%)?
Answer: 48%

Question: What about the “effect on phosphorylation of STAT4” value (STAT4 and p-STAT4) of the same substance?
Answer: can inhibit the phosphorylation of STAT4

Question: And the “insulitis compared with the CMC group” value (NOD mice (insulitis))?
Answer: significantly improved

Question: What about the “Th0 (×10^4) Average” value (Naive CD4+ T cells; Sorafenib 1 μg/ml, 0 μg/ml control 9.47) of the same substance?
Answer: 9.33 ×10^4

Question: What about the “Th0 (×10^4) Average” value (Naive CD4+ T cells; Sorafenib 2 μg/ml) of the same substance?
Answer: 8.1 ×10^4

Question: What about the “Th0 (×10^4) Average” value (Naive CD4+ T cells; Sorafenib 4 μg/ml) of the same substance?
Answer: 8 ×10^4

Question: And the “effect on IL-12-induced Th1 differentiation” value ([3]; 0, 1, 2, 4 μg/ml, 48 hours)?
Answer: inhibit IL-12-induced Th1 differentiation in a dose-dependent manner

Question: What about the “Th1 (%) Average” value ([3]; Sorafenib 1 μg/ml, 0 μg/ml control 85.27) of the same substance?
Answer: 80.43%

Question: And the “Th1 (%)” value ([3]; Sorafenib 1 μg/ml)?
Answer: 77.9% and 76% and 87.4%

Question: And the “Th1 (%) Average” value ([3]; Sorafenib 2 μg/ml, P<0.01 vs 0 μg/ml)?
Answer: 68.53** %

Question: What about the “Th1 (%)” value ([3]; Sorafenib 2 μg/ml) of the same substance?
Answer: 67.8% and 68.5% and 69.3%

Question: And the “Th1 (%) Average” value ([3]; Sorafenib 4 μg/ml, P<0.001 vs 0 μg/ml)?
Answer: 15.66*** %

Question: What about the “Th1 (%)” value ([3]; Sorafenib 4 μg/ml) of the same substance?
Answer: 24.9% and 12.9% and 9.17%

Question: And the “proportion of Th1 cells in the pancreas” value [4, 6]?
Answer: significantly reduced

Question: And the “proportions of other T cell subsets in the pancreas” value [4, 6]?
Answer: remained unchanged

Question: What about the “Th1 (%) in pancreas” value ([4]; gavage 4 weeks from 10 weeks of age, cyclophosphamide after 2 weeks, individual values) of the same substance?
Answer: 6.63% and 3.58%

Question: And the “Th1 (%) in pancreas, Average” value ([4]; gavage 4 weeks, cyclophosphamide after 2 weeks, P<0.05 vs vehicle (21.2))?
Answer: 5.11* %

Question: And the “Th2 (%) in pancreas” value [4, 8]?
Answer: 9.75% and 12.9% and 7.91%

Question: And the “Th17 (%) in pancreas” value [4, 8]?
Answer: 3.28% and 0.68% and 1.19%

Question: And the “Tregs (%) in pancreas” value [4, 8]?
Answer: 4.6% and 4.31% and 2.25% and 4.37%

Question: What about the “Th17 (%) in pancreas, Average” value ([4]; gavage 4 weeks, cyclophosphamide after 2 weeks, vehicle 1.31) of the same substance?
Answer: 1.72%

Question: What about the “Tregs (%) in pancreas, Average” value ([4]; gavage 4 weeks, cyclophosphamide after 2 weeks, vehicle 4.345) of the same substance?
Answer: 3.88%

Question: What about the “Th2 (%) in pancreas, Average” value ([4]; gavage 4 weeks, cyclophosphamide after 2 weeks, vehicle 9.45) of the same substance?
Answer: 10.19%

Question: And the “Survival rate (%)” value ([5]; 10 mg/kg gavage for 7 weeks, day 105)?
Answer: 94.12%

Question: And the “Survival rate (%)” value ([5]; 10 mg/kg gavage for 7 weeks, day 112)?
Answer: 88.24%

Question: What about the “Survival rate (%)” value ([5]; 10 mg/kg gavage for 7 weeks, day 119) of the same substance?
Answer: 82.35%

Question: What about the “Survival rate (%)” value ([5]; 10 mg/kg gavage for 7 weeks, day 126) of the same substance?
Answer: 76.47%

Question: What about the “Survival rate (%)” value ([5]; 10 mg/kg gavage for 7 weeks, day 140, P<0.05 vs vehicle (35.71)) of the same substance?
Answer: 76.47* %

Question: What about the “Survival rate (%)” value ([5]; 10 mg/kg gavage once a day from 8 weeks of age for 7 weeks, cyclophosphamide 300 mg/kg after 4 weeks, n=17, day 0) of the same substance?
Answer: 100%

Question: And the “preventive effect still existed after the gavage was stopped, lasted to” value ([5]; gavage stopped after 7 weeks)?
Answer: 20 weeks

Question: And the “incidence rate of type 1 diabetes” value ([5]; more than half of the CMC group developed T1D)?
Answer: 24%
